Assay results taken from EP0053029A1, “Non enkephalin-like peptides, their production, compositions containing them, and their medical and veterinary use” (PENINSULA LABORATORIES INCORPORATED, priority 1980, dated 1982).
“And” between values parts separate entries of the source, which are not always exact repeats. Equal values may be shown once. Where a SMILES comes first, the peptide text is derived from it. [ ]: non-standard residue; d: D form. NMeF = CN[C@@H](Cc1ccccc1)C(=O)O; Thz = O=C(O)[C@@H]1CSCN1

Tested on: rat
Assay: rat tail withdrawal assay (hot water, 55°C)
Format: in vivo
Conditions: for analgesic activity: general statement, route and dose not stated
Method: The acetate salts of formula I described in Examples 1 to 3 were tested for analgesic activity in the rat tail withdrawal assay. […] Latencies of 5 seconds or greater indicate strong analgesic activity and 20 seconds is a maximum response in this test. The peptides were administered intracisternally or intravenously.
The formula I acetate of Example 2 was dissolved in a sufficient sterile, distilled water to give an injection volume of 1 ml/kg of body weight and administered to rats as a bolus i.v. injection at several dosages.

Structure (SMILES): NC(=O)[C@@H]1CSCN1C(=O)[C@H](Cc1ccccc1)NC(=O)[C@@H]1CCCN1C(=O)[C@@H](N)Cc1ccc(O)cc1 [Example 1, L-Tyrosyl-L-Prolyl-L-Phenylalanyl-L-Thiazolidine-4-carboxyl·amide Acetate] (H-YPF[Thz]-NH2)
- analgesic activity: high analgesic activity

Structure (SMILES): CN(C(=O)[C@@H]1CCCN1C(=O)[C@@H](N)Cc1ccc(O)cc1)[C@@H](Cc1ccccc1)C(=O)N1CCC[C@@H]1C(N)=O [Example 2, L-Tyrosyl-L-Prolyl-N-Methyl-L-Phenylalanyl-D-Prolinamide-Acetate] (H-YP[NMeF][dP]-NH2)
- Latency of Tail Withdrawal (i.v. bolus, 2.5 mg/kg, 5 min. after injection): 2 s
- Latency of Tail Withdrawal (i.v. bolus, 5.0 mg/kg, 5 min. after injection): 8.4 ± 3.6 s
- Latency of Tail Withdrawal (i.v. bolus, 10.0 mg/kg, 5 min. after injection): 10.2 ± 3.2 s
- Latency of Tail Withdrawal (i.v. bolus, 10.0 mg/kg, 15 min. after injection): 11.1 ± 3.1 s
- Latency of Tail Withdrawal (i.v. bolus, 10.0 mg/kg, 30 min. after injection): 7.5 ± 2.5 s
- Latency of Tail Withdrawal (i.v. bolus, 10.0 mg/kg, 60 min. after injection): 6.4 ± 2.3 s
- Latency of Tail Withdrawal (i.v., 2.5 mg/kg, 15 min. after injection): 3.5 s
- Latency of Tail Withdrawal (i.v., 2.5 mg/kg, 30 min. after injection): 3.0 s
- Latency of Tail Withdrawal (i.v., 2.5 mg/kg, 60 min. after injection): 2.5 s
- Latency of Tail Withdrawal (i.v., 5.0 mg/kg, 15 min. after injection): 10.3 ± 3.1 s
- Latency of Tail Withdrawal (i.v., 5.0 mg/kg, 30 min. after injection): 9.1 ± 3.4 s
- Latency of Tail Withdrawal (i.v., 5.0 mg/kg, 60 min. after injection): 7.8 ± 3.0 s
- Comments (i.v., 5.0 mg/kg, observed behaviour): Individual rats showed 20 sec. latencies and morphine-like symptoms

Structure (SMILES): CN(C(=O)[C@@H]1CCCN1C(=O)[C@@H](N)Cc1ccc(O)cc1)[C@@H](Cc1ccccc1)C(=O)N1CCC[C@@H]1CO [Example 3, L-Tyrosyl-L-Prolyl-N-Methyl-L-Phenylalanyl-D-Prolinol· Acetate]
- analgesic activity: high analgesic activity

Structure (SMILES): CN(C(=O)[C@@H]1CSCN1C(=O)[C@@H](N)Cc1ccc(O)cc1)[C@@H](Cc1ccccc1)C(=O)N1CCC[C@@H]1C(N)=O [Tyr-Thz-N-Me-Phe-D-Pro-NFi2] (H-Y[Thz][NMeF][dP]-NH2)
- analgesic activity: high analgesic activity

Structure (SMILES): CN1CC[C@]23c4c5ccc(O)c4O[C@H]2[C@@H](O)C=C[C@H]3[C@H]1C5 [morphine, reference compound]
- Latency of Tail Withdrawal (rat, in vivo, iv, 2.5 mg/kg): 5 s and 6 s and 4.1 s
- Comments (rat, in vivo, iv, 5 mg/kg): Catalepsy Rigidity
- Latency of Tail Withdrawal (rat, in vivo, iv, 5 mg/kg): 20 s
- Latency of Tail Withdrawal (rat, in vivo, iv, 7.5 mg/kg): 20 s
